Biological target: T1, TTR101-125 (Homo sapiens, UniProt P02766)
T1 construct: TTR fragments 1-25, 26-50, 51-75, 76-100, 81-105, 101-125, and 101-125 were obtained from GenScript; purchased GenScript; host or cells: synthetic peptide
Test: ThT fluorescence assay of TTR101-125 fibril formation
Assay type: biochemical
Conditions: screen on prone-to-aggregate proteins (FIG. 4A)
Protocol: Thioflavin-T (ThT) fluorescence assays. Thioflavin-T (ThT) fluorescence assays were used to monitor fibril formation of recombinant Ap (fragments 1-40 and 1-42), recombinant α-syn, recombinant tau isoform 2N4R, synthetic IAPP, and synthetic TTR peptides treated with BTA and its derivatives. The IAPP ThT assay was performed in 10 mM PBS (pH 7.4) at a final concentration of 10 μM for both IAPP and ThT as published previously. Aβ fragments 1-40 and 1-42 were tested at 7 μM in 10 mM of PBS using ThT at a final concentration of 20 μM. Kinetics of α-syn fibrillization were performed as published previously.^36-37 TTR fragment kinetics of fibril formation were assessed at 10 μM in 100 mM sodium acetate buffer supplemented with 100 mM KCl and 1 mM ethylenediaminetetraacetic acid (EDTA) (pH 4) with 20 μM ThT. The fluorescence emission experiments were performed with the excitation and emission wavelengths set at 440 and 485 nm, respectively, with a Synergy HT multi-mode microplate reader (BioTek, Winooski, VT). Samples were measured in three replicates, and the experiments were repeated three times using at least two different stock solutions. For each time point, arbitrary units of fluorescence were calculated from the mean values normalized against the maximum value in each completed assay. The lag time for each condition was calculated as previously described. All results contained in histograms were presented as mean±SEM. Data were analyzed by the one-way analysis of variance with Dunnett's multiple comparisons between controls and compounds. Differences were considered statistically significant at p<0.05.

Nc1nsc2ccc([N+](=O)[O-])cc12 [A, 5-nitro-1,2-benzothiazol-3-amine]
thioflavin T fluorescence intensity, TTR101-125: significantly more effective at preventing the aggregation

— patent US20260224538A1 (Purdue Research Foundation, priority 2023, published 2026)
